According to ChEMBL document CHEMBL6078723, “Novel steroidal β-carboline derivatives as promising antibacterial candidates against methicillin-resistant Staphylococcus aureus” (Eur J Med Chem, 2025):
Activity calls are given as the source filed them. No cut-off for these calls is given here.

Experiments:
Staphylococcus aureus [1] = assay: Antibacterial activity against Staphylococcus aureus CGMCC1.8721; format: functional
Staphylococcus aureus [2] = assay: Antibacterial activity against methicillin-resistant Staphylococcus aureus ATCC 43300; format: functional
Staphylococcus aureus [3] = assay: Antibacterial activity against methicillin-resistant Staphylococcus aureus CGMCC1.12409; format: functional
Staphylococcus aureus [4] = assay: Bactericidal activity against Staphylococcus aureus CGMCC1.8721 by CLSI based method; format: functional
Staphylococcus aureus [5] = assay: Bactericidal activity against methicillin-resistant Staphylococcus aureus ATCC 43300 by CLSI based method; format: functional
HepG2 = assay: Cytotoxicity against human HepG2 cells at 40 uM by CCK8 assay relative to control; format: toxicity, cell-based; details: hepg2, 40 µM
HEK-293T = assay: Cytotoxicity against HEK293T cells at 40 uM by CCK8 assay relative to control; format: toxicity, cell-based; details: human
[6] = Hemolytic activity in rabbit RBC; format: toxicity, cell-based, Oryctolagus cuniculus, Erythrocyte; details: rabbit red blood cells
[7] = Selectivity index, ratio of HC50 for hemolytic activity in rabbit RBC to MIC for antibacterial activity against Staphylococcus aureus; format: toxicity, cell-based; details: rabbit red blood cells
Staphylococcus aureus [8] = assay: Bactericidal activity against Staphylococcus aureus CGMCC1.8721 at 4 to 8 times MIC incubated for 0.5 to 1 hr by time kill assay relative to control; format: functional; details: time 0.5-1 hrs
Staphylococcus aureus [9] = assay: Antibacterial activity against Staphylococcus aureus CGMCC1.8721 in presence of Ca2+ (reference value: 0.5 ug/ml); format: functional
Staphylococcus aureus [10] = assay: Antibacterial activity against Staphylococcus aureus CGMCC1.8721 in presence of Mg2+ (reference value: 0.5 ug/ml); format: functional
Staphylococcus aureus [11] = assay: Antibacterial activity against Staphylococcus aureus CGMCC1.8721 in presence of Fe2+ (reference value: 0.5 ug/ml); format: functional
Staphylococcus aureus [12] = assay: Antibacterial activity against Staphylococcus aureus CGMCC1.8721 in presence of H2PO4- (reference value: 0.5 ug/ml); format: functional
Staphylococcus aureus [13] = assay: Antibacterial activity against Staphylococcus aureus CGMCC1.8721 at pH 6.5 (reference value: 0.5 ug/ml); format: functional
Staphylococcus aureus [14] = assay: Antibacterial activity against Staphylococcus aureus CGMCC1.8721 at pH 8 (reference value: 0.5 ug/ml); format: functional
Staphylococcus aureus [15] = assay: Antibacterial activity against Staphylococcus aureus CGMCC1.8721 at 37.5 degreeC (reference value: 0.5 ug/ml); format: functional
Staphylococcus aureus [16] = assay: Antibacterial activity against methicillin-resistant Staphylococcus aureus ATCC 43300 in presence of Na+ (reference value: 0.5 ug/ml); format: functional
Staphylococcus aureus [17] = assay: Antibacterial activity against methicillin-resistant Staphylococcus aureus ATCC 43300 in presence of K+ (reference value: 0.5 ug/ml); format: functional
Staphylococcus aureus [18] = assay: Antibacterial activity against methicillin-resistant Staphylococcus aureus ATCC 43300 in presence of Fe3+ (reference value: 0.5 ug/ml); format: functional
Staphylococcus aureus [19] = assay: Antibacterial activity against methicillin-resistant Staphylococcus aureus ATCC 43300 in presence of H2PO4- (reference value: 0.5 ug/ml); format: functional
Staphylococcus aureus [20] = assay: Antibacterial activity against methicillin-resistant Staphylococcus aureus ATCC 43300 at 36.5 degreeC (reference value: 0.5 ug/ml); format: functional
Staphylococcus aureus [21] = assay: Antibacterial activity against methicillin-resistant Staphylococcus aureus ATCC 43300 at 37.5 degreeC (reference value: 0.5 ug/ml); format: functional
Staphylococcus aureus [22] = assay: Antibacterial activity against methicillin-resistant Staphylococcus aureus CGMCC1.12409 in presence of Na+ (reference value: 0.5 ug/ml); format: functional
Staphylococcus aureus [23] = assay: Antibacterial activity against methicillin-resistant Staphylococcus aureus CGMCC1.12409 in presence of Mg2+ (reference value: 0.5 ug/ml); format: functional
Staphylococcus aureus [24] = assay: Antibacterial activity against methicillin-resistant Staphylococcus aureus CGMCC1.12409 in presence of H2PO4- (reference value: 0.5 ug/ml); format: functional
Staphylococcus aureus [25] = assay: Antibacterial activity against methicillin-resistant Staphylococcus aureus ATCC 33591 in presence of Na+ (reference value: 1 ug/ml); format: functional
Staphylococcus aureus [26] = assay: Antibacterial activity against methicillin-resistant Staphylococcus aureus ATCC 33591 in presence of K+ (reference value: 1 ug/ml); format: functional
Staphylococcus aureus [27] = assay: Antibacterial activity against methicillin-resistant Staphylococcus aureus ATCC 33591 in presence of Mg2+ (reference value: 1 ug/ml); format: functional
Staphylococcus aureus [28] = assay: Antibacterial activity against methicillin-resistant Staphylococcus aureus ATCC 33591 in presence of Fe2+ (reference value: 1 ug/ml); format: functional
Staphylococcus aureus [29] = assay: Antibiofilm activity against Staphylococcus aureus CGMCC1.8721 by crystal violet staining based analysis; format: functional, organism-based
Staphylococcus aureus [30] = assay: Antibiofilm activity against Staphylococcus aureus CGMCC1.8721 at 4 times MIC by crystal violet staining based analysis relative to control; format: functional
Staphylococcus aureus [31] = assay: Induction of inner membrane permeability in Staphylococcus aureus CGMCC1.8721 assessed as increase in red fluorescence intensity by PI staining based analysis; format: functional, organism-based
Staphylococcus aureus [32] = assay: Induction of loss of membrane integrity in Staphylococcus aureus CGMCC1.8721 assessed as protein leakage; format: functional, organism-based
Staphylococcus aureus [33] = assay: Inhibition of metabolic activity in Staphylococcus aureus CGMCC1.8721; format: functional, organism-based
Staphylococcus aureus [34] = assay: Antibacterial activity against Staphylococcus aureus CGMCC1.8721 in presence of phosphatidylglycerol; format: functional, organism-based
Staphylococcus aureus [35] = assay: Antibacterial activity against Staphylococcus aureus CGMCC1.8721 in presence of phosphatidylethanolamine; format: functional, organism-based
Staphylococcus aureus [36] = assay: Antibacterial activity against Staphylococcus aureus CGMCC1.8721 in presence of phosphatidylcholine; format: functional, organism-based
Staphylococcus aureus [37] = assay: Antibacterial activity against Staphylococcus aureus CGMCC1.8721 in presence of PGN; format: functional, organism-based
Staphylococcus aureus [38] = assay: Antibacterial activity against Staphylococcus aureus CGMCC1.8721 in presence of ATP; format: functional, organism-based
Staphylococcus aureus [39] = assay: Antibacterial activity against Staphylococcus aureus CGMCC1.8721 in presence of dNTP; format: functional, organism-based
Staphylococcus aureus [40] = assay: Induction of morphological change in Staphylococcus aureus CGMCC1.8721 assessed as depression of cell surface at 4 times MIC by […] SEM analysis; format: functional, organism-based
Staphylococcus aureus [41] = assay: Antibacterial activity against methicillin-resistant Staphylococcus aureus CGMCC1.12409 infected in mouse model assessed as reduction in bacterial load at infection site at 5 mg/kg measured for 5 days relative to control; format: functional; set-up: scale not given: the % may be the effect or the level left; details: time 5 day
Staphylococcus aureus [42] = assay: Antibacterial activity against methicillin-resistant Staphylococcus aureus CGMCC1.12409 infected in mouse model assessed as reduction in bacterial load at infection site at 10 mg/kg measured for 5 days relative to control; format: functional; set-up: scale not given: the % may be the effect or the level left; details: time 5 day
Staphylococcus aureus [43] = assay: Antibacterial activity against methicillin-resistant Staphylococcus aureus CGMCC1.12409 infected in mouse model assessed as smooth dorsal skin at 10 mg/kg measured for 5 days; format: functional, organism-based; details: route sc, time 5.0 day
Staphylococcus aureus [44] = assay: Antibacterial activity against methicillin-resistant Staphylococcus aureus CGMCC1.12409 infected in mouse model assessed as reduction in neutrophils in skin tissues at 5 to 10 mg/kg measured for 5 days by H and E staining based analysis; format: functional, organism-based; details: dose 5-10 mg/kg, time 5.0 day

COc1ccc2[nH]c3c(CC[C@H](C)[C@H]4CC[C@H]5[C@@H]6[C@H](O)C[C@@H]7C[C@H](O)CC[C@]7(C)[C@H]6C[C@H](O)[C@]45C)[n+](Cc4ccc(Cl)cc4)ccc3c2c1.[Br-]
MIC (Staphylococcus aureus [1]): 0.5 µg/mL | MIC (Staphylococcus aureus [2]): 0.5 µg/mL | MIC (Staphylococcus aureus [3]): 0.5 µg/mL | MBC (Staphylococcus aureus [4]): 1 µg/mL | MBC (Staphylococcus aureus [5]): 1 µg/mL | Activity (HepG2): Non-toxic | Activity (HEK-293T): Non-toxic | HC50 [6]: > 256 µg/mL | selectivity ratio [7]: > 256 | Activity (Staphylococcus aureus [8]): 100% | MIC (Staphylococcus aureus [9]): 0.5 µg/mL | MIC (Staphylococcus aureus [10]): 0.5 µg/mL | MIC (Staphylococcus aureus [11]): 0.5 µg/mL | MIC (Staphylococcus aureus [12]): 0.5 µg/mL | MIC (Staphylococcus aureus [13]): 0.5 µg/mL | MIC (Staphylococcus aureus [14]): 0.5 µg/mL | MIC (Staphylococcus aureus [15]): 0.5 µg/mL | MIC (Staphylococcus aureus [16]): 0.5 µg/mL | MIC (Staphylococcus aureus [17]): 0.5 µg/mL | MIC (Staphylococcus aureus [18]): 0.5 µg/mL | MIC (Staphylococcus aureus [19]): 0.5 µg/mL | MIC (Staphylococcus aureus [20]): 0.5 µg/mL | MIC (Staphylococcus aureus [21]): 0.5 µg/mL | MIC (Staphylococcus aureus [22]): 1 µg/mL | MIC (Staphylococcus aureus [23]): 1 µg/mL | MIC (Staphylococcus aureus [24]): 1 µg/mL | MIC (Staphylococcus aureus [25]): 1 µg/mL | MIC (Staphylococcus aureus [26]): 1 µg/mL | MIC (Staphylococcus aureus [27]): 1 µg/mL | MIC (Staphylococcus aureus [28]): 1 µg/mL | Activity (Staphylococcus aureus [29]): Dose-dependent-effect | Activity (Staphylococcus aureus [30]): ~87% | Activity (Staphylococcus aureus [31]): Dose-dependent-effect | Activity (Staphylococcus aureus [32]): Dose-dependent-effect | inhibition (Staphylococcus aureus [33]): Dose-dependent-effect | Activity (Staphylococcus aureus [34]): inactive | Activity (Staphylococcus aureus [35]): Active | Activity (Staphylococcus aureus [36]): Active | Activity (Staphylococcus aureus [37]): Active | Activity (Staphylococcus aureus [38]): Active | Activity (Staphylococcus aureus [39]): Active | Activity (Staphylococcus aureus [40]): Active | Activity (Staphylococcus aureus [41]): 94.33% | Activity (Staphylococcus aureus [42]): 98.55% | Activity (Staphylococcus aureus [43]): Active | Activity (Staphylococcus aureus [44]): Active
